Values joined by “and” are separate entries in the source; they are usually repeats but may differ in a detail not shown here. Equal values may be shown once. Read-outs that look alike come from different tables or passages of the source.
Key:
[1] = GSH reactivity (consumption) assay; type: physicochemical; settings: for GSH reactivity relative to chloroacetamide (1a): model compounds; for covalent bond formation with GSH: assay conditions or up to 37° C. for 24 h
Mino cells [2] = assay: Proteomic reactivity of model alkyne probes; type: cell-based; settings: compared with 2b
BTK [3] = target: T1, BTK (Homo sapiens (Human), UniProt Q06187); assay: In vitro kinase activity assay; type: biochemical
T1 sequence (Q06187 whole entry, looked up): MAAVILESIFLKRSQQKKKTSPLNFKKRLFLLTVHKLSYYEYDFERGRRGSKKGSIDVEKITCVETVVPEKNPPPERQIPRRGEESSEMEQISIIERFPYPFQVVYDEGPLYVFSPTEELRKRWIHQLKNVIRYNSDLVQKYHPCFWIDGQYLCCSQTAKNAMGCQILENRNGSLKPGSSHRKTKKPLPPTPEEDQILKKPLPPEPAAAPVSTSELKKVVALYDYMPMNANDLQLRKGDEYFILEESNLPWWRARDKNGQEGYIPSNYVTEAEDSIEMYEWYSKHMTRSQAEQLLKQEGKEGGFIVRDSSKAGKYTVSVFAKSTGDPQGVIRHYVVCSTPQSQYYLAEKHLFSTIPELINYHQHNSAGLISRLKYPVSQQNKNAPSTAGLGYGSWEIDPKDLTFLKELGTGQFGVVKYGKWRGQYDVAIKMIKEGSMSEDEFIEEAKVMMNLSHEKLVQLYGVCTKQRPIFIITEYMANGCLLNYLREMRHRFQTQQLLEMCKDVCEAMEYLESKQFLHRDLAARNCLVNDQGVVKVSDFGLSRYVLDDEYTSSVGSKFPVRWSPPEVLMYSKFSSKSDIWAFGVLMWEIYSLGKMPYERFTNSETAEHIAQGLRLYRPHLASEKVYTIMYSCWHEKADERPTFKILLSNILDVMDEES

BTK [4] = target: T1, BTK; assay: BTK activity (autophosphorylation) in Mino cells; type: cell-based; settings: anti-IgM activation, read-out: IC50 of BTK autophosphorylation inhibition
Excerpt: The cell pellets were subjected to immunoblotting and performed Western blots for p-BTK, BTK and β-actin.
Cell pellets were washed with ice-cold PBS and lysed using RIPA-buffer (Sigma, R0278). […] EZ-ECL Kit (Biological Industries, 20-500-1000) was used to detect HRP-activity.

BTK C481S mutant = BTK C481S mutant (Homo sapiens (Human), UniProt Q06187, C481S); assay: In vitro kinase activity assay with BTK C481S mutant; type: biochemical; settings: for C481S/BTK: ratio of off-target/BTK IC50
BTK C481S mutant, sequence (Q06187 whole entry C481S, looked up): as the sequence (Q06187 whole entry, looked up) above, with C481S counted along it

EGFR = EGFR (Homo sapiens (Human), UniProt P00533); assay: In vitro kinase activity assay with EGFR; type: biochemical; settings: for EGFR/BTK: ratio of off-target/BTK IC50
EGFR, sequence (P00533 25-1210): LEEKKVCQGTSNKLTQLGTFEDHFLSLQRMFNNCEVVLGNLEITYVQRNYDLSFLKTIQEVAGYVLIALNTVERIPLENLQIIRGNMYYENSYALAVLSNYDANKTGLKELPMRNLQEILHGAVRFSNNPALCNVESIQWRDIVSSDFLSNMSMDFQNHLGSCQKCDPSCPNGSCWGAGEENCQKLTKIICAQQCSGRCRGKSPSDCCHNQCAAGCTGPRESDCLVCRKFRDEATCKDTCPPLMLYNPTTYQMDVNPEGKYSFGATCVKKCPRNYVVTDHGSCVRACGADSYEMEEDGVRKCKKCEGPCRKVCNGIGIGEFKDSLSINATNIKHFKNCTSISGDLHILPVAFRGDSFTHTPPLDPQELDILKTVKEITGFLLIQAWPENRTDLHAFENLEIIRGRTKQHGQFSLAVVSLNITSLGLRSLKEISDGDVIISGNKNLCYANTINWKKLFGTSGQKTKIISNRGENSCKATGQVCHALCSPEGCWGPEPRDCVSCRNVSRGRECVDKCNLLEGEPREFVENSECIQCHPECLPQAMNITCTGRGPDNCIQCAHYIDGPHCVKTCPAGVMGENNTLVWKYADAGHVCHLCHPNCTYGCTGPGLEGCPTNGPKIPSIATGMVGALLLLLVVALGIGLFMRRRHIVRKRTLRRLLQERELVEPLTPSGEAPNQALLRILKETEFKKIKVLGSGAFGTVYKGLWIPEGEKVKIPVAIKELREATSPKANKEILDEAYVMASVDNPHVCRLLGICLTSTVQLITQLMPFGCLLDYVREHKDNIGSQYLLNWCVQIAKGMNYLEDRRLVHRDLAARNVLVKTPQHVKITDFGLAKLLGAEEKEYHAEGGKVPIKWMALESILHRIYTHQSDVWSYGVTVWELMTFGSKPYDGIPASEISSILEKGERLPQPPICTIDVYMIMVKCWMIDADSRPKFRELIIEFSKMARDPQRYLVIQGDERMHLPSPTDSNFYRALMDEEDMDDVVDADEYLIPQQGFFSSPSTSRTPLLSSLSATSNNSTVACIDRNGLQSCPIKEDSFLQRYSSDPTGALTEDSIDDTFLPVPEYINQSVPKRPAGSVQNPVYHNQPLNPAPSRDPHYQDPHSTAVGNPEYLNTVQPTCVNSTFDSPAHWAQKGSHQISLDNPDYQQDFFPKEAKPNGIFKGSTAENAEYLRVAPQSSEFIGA

[5] = system: TCL1 adoptive transfer mouse model for CLL; assay: TCL1 adoptive transfer mouse model for CLL; type: in vivo; settings: after two weeks of treatment
BTK [6] = target: BTK (Mus musculus (Mouse), UniProt P35991); assay: BTK engagement in treated mice spleens; type: in vivo
BTK (Mus musculus (Mouse), UniProt P35991), sequence (P35991 whole entry): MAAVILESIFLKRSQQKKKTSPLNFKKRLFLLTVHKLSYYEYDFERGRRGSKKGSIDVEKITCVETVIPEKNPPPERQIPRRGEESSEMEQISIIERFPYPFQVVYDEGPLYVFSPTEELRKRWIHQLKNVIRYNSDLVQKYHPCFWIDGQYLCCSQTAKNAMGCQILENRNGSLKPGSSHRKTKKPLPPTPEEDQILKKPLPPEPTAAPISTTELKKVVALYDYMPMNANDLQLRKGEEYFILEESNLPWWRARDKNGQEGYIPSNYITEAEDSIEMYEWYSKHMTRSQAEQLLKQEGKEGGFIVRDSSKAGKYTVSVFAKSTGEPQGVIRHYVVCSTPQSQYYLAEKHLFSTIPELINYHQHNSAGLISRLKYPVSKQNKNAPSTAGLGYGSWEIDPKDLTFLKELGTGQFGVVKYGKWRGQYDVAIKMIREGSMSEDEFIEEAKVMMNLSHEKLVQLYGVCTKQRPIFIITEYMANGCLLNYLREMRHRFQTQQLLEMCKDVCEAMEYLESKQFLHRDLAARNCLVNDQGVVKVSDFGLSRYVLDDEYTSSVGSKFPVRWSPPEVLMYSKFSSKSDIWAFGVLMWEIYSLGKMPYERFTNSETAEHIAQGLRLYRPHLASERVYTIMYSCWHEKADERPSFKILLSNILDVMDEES
Procedure: Lysates were diluted to 2 mg/ml, […] per sample, and incubated for 1 h in room temperature with […] probe 4 to label BTK. Lysates were then clicked to TAMRA-azide and imaged using ChemiDoc MP (546 nm) as described in the In-gel fluorescence protocol.

Mino cells [7] = assay: Competitive pull-down proteomics; type: cell-based; settings: 1 μM, fold-enrichment>4 and p-value<0.05
[8] = Metabolic stability with human liver microsomes; settings: five-minute incubation
BTK kinase domain = BTK kinase domain (Homo sapiens (Human), UniProt Q06187); assay: In-vitro labeling of recombinant BTK, intact protein LC/MS; type: binding; settings: 2 μM BTK, 2 μM compound
BTK kinase domain, sequence (Q06187 402-655): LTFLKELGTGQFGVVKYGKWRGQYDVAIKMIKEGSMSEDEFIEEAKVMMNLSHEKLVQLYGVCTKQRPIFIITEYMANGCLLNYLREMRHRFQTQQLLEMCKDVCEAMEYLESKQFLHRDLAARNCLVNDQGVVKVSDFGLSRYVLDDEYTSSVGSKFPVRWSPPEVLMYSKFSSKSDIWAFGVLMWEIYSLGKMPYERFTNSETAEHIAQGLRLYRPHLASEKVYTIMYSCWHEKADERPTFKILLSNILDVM

[9] = 0.5 nM BTK, 5 μM ATP, read-out: BTK (IC50 μM)
[10] = BTK C481S mutant, read-out: C481S (IC50 μM)

## CNS(=O)(=O)OCC(=O)NCc1ccccc1 [Compound 1d, 2-(benzylamino)-2-oxoethyl methylsulfamate]
[1]
  GSH reactivity relative to chloroacetamide (1a): an order of magnitude less reactivity

## O=C(COS(=O)(=O)NCc1ccccc1)NCc1ccccc1 [Compound 1e, 2-(benzylamino)-2-oxoethyl benzylsulfamate]
[1]
  GSH reactivity relative to chloroacetamide (1a): an order of magnitude less reactivity

## CS(=O)(=O)CC(=O)NCc1ccccc1 [Compound 1i, N-benzyl-2-(methylsulfonyl)acetamide]
[1]
  covalent bond formation with GSH: did not form a covalent bond with GSH

## O=C(CS(=O)(=O)c1ccccc1)NCc1ccccc1 [Compound 1j, N-benzyl-2-(phenylsulfonyl)acetamide]
[1]
  covalent bond formation with GSH: did not form a covalent bond with GSH

## C#Cc1ccc(NC(=O)COS(=O)(=O)NCc2ccccc2)cc1 [Compound 2a, 2-((4-ethynylphenyl)amino)-2-oxoethyl benzylsulfamate]
Mino cells [2]
  proteomic reactivity (proteins enriched): enriching more proteins

## C#Cc1ccc(NC(=O)CCl)cc1 [Compound 2c, 2-chloro-N-(4-ethynylphenyl)acetamide]
Mino cells [2]
  proteomic reactivity (proteins enriched): enriching more proteins

## CS(=O)(=O)OCC(=O)N1CCC[C@@H](n2nc(-c3ccc(Oc4ccccc4)cc3)c3c(N)ncnc32)C1 [Compound 3b, (R)-2-(3-(4-amino-3-(4-phenoxyphenyl)-1H-pyrazolo[3,4-d]pyrimidin-1-yl)piperidin-1-yl)-2-oxoethyl methanesulfonate]
BTK [3]; [9]
  IC50: 0.0464 µM and 0.046 µM
BTK [4]
  IC50: 0.006 µM

## CNS(=O)(=O)OCC(=O)N1CCC[C@@H](n2nc(-c3ccc(Oc4ccccc4)cc3)c3c(N)ncnc32)C1 [Compound 3c, (R)-2-(3-(4-amino-3-(4-phenoxyphenyl)-1H-pyrazolo[3,4-d]pyrimidin-1-yl)piperidin-1-yl)-2-oxoethyl methylsulfamate]
BTK [3]; [9]
  IC50: 0.00864 µM and 0.0086 µM
BTK [3]; read-out: IC50 against BTK
  IC50: ~0.01 µM
BTK C481S mutant
  IC50: 0.74 µM
  fold potency lost against the C481S mutant: 30-85 fold
  C481S/BTK: 85.6
EGFR
  IC50: 0.241 µM
  EGFR/BTK: 27.9
BTK [4]
  IC50: 0.0036 µM
[5]
  spleen size: visually smaller
BTK [6]
  BTK engagement in vivo (ibrutinib-alkyne probe labeling of spleen lysate): do not show probe labeling
Mino cells [7]
  number of off-targets (competitive pull-down): 6
[8]
  remained intact after incubation with human liver microsomes: over 30%

## Nc1ncnc2c1c(-c1ccc(Oc3ccccc3)cc1)nn2[C@@H]1CCCN(C(=O)COS(=O)(=O)NCc2ccccc2)C1 [Compound 3d, (R)-2-(3-(4-amino-3-(4-phenoxyphenyl)-1H-pyrazolo[3,4-d]pyrimidin-1-yl)piperidin-1-yl)-2-oxoethyl benzylsulfamate]
BTK [3]; [9]
  IC50: 0.0242 µM and 0.024 µM
BTK [3]; read-out: IC50 against BTK
  IC50: ~0.01 µM
BTK C481S mutant
  fold potency lost against the C481S mutant: 30-85 fold
  C481S/BTK: 52.8
BTK C481S mutant; [10]
  IC50: 1.28 µM
EGFR
  IC50: 0.533 µM
  EGFR/BTK: 22.0
Mino cells [7]
  number of off-targets (competitive pull-down): 20

## Nc1ncnc2c1c(-c1ccc(Oc3ccccc3)cc1)nn2[C@@H]1CCCN(C(=O)COS(=O)(=O)Nc2ccccc2)C1 [Compound 3e, (R)-2-(3-(4-amino-3-(4-phenoxyphenyl)-1H-pyrazolo[3,4-d]pyrimidin-1-yl)piperidin-1-yl)-2-oxoethyl phenylsulfamate]
BTK [3]
  fold weaker IC50 than Ibrutinib: 10 fold
BTK [3]; [9]
  IC50: 0.0949 µM and 0.095 µM
BTK [3]; read-out: IC50 against BTK
  IC50: 0.1 µM
BTK C481S mutant; [10]
  IC50: 0.275 µM
BTK C481S mutant
  C481S/BTK: 2.9
EGFR
  IC50: 1.96 µM
  EGFR/BTK: 20.6

## CS(=O)(=O)CC(=O)N1CCC[C@@H](n2nc(-c3ccc(Oc4ccccc4)cc3)c3c(N)ncnc32)C1 [Compound 3f, (R)-1-(3-(4-amino-3-(4-phenoxyphenyl)-1H-pyrazolo[3,4-d]pyrimidin-1-yl)piperidin-1-yl)-2-(methylsulfonyl)ethan-1-one]
BTK kinase domain
  covalent labeling of BTK (LC/MS): failed to react covalently with BTK

## Nc1ncnc2c1c(-c1ccc(Oc3ccccc3)cc1)nn2[C@@H]1CCCN(C(=O)CS(=O)(=O)c2ccccc2)C1 [Compound 3g, (R)-1-(3-(4-amino-3-(4-phenoxyphenyl)-1H-pyrazolo[3,4-d]pyrimidin-1-yl)piperidin-1-yl)-2-(phenylsulfonyl)ethan-1-one]
BTK kinase domain
  covalent labeling of BTK (LC/MS): failed to react covalently with BTK

## C#CCOS(=O)(=O)N1CCC[C@@H](n2nc(-c3ccc(Oc4ccccc4)cc3)c3c(N)ncnc32)C1 [Compound 3j, prop-2-yn-1-yl (R)-3-(4-amino-3-(4-phenoxyphenyl)-1H-pyrazolo[3,4-d]pyrimidin-1-yl)piperidine-1-sulfonate]
[1]; same conditions as Ibrutinib
  reaction with GSH: did not undergo any reaction with GSH

Reference: US20250304585A1, “SULFAMATE BASED COVALENT LIGAND-DIRECTED RELEASE (COLDR) COMPOUNDS” (priority 2022, published 2025)
